Reference: US20260335347A1, “COMBINATION THERAPY WITH SPARSENTAN AND A SGLT2 INHIBITOR FOR TREATING KIDNEY DISEASES OR DISORDERS” (Travere Therapeutics, Inc., priority 2022, published 2026)
Like-named read-outs stand apart in the source and are kept apart here.

Key:
[1] = Open-label drug-drug interaction study in healthy adults: safety and tolerability (TEAEs); format: in vivo, human; settings: 10 mg DAPA, 800 mg SPAR once daily
Description: (§1) Potential drug-drug interactions (DDI) of sparsentan with SGLT2 inhibitors are not known. The safety of administering sparsentan and dapagliflozin was evaluated in an open-label, drug-drug interaction study in healthy […]. This phase 1 study examined the effect of multiple doses of sparsentan on the pharmacokinetics (PK) of single-dose dapagliflozin and assessed the safety and tolerability of single-dose dapagliflozin when co-administered after multiple doses of sparsentan in healthy adults.
(§2) The open-label DDI study included Period 1 (Days 1-5; single dose of 10 mg dapagliflozin (“DAPA”) on Day 1, PK sampling pre-dose and up to 96 hours post-dose) and Period 2 (Days 5-14; 800 mg sparsentan (“SPAR”) once daily for 10 days with single 10 mg dose DAPA co-administered on Day 11, DAPA PK sampling pre-dose and up to 96 hours after Day 11 dosing). To avoid hypoglycemic events, subjects received an oral 20% glucose solution in water with the DAPA dose and every ~15 minutes up to 4 hours post-dose. Plasma concentrations and PK parameters of DAPA and SPAR were summarized. Subjects with evaluable data for both periods were included in an ANOVA mixed model analysis of DAPA AUC0-t, AUC0-inf, and Cmax following DAPA+SPAR vs DAPA alone. Treatment-emergent adverse events (TEAEs) were summarized.

[2] = Open-label drug-drug interaction study in healthy adults: plasma dapagliflozin PK; format: in vivo, human; settings: for AUC(0-inf) / AUC(0-t) / Cmax: human, plasma, 10 mg; for AUC(0-inf): n = 16; for AUC(0-t) / Cmax: n = 20
Description: as §1, §2

patients with IgAN [3] = assay: PROTECT Phase 3 trial: change in proteinuria (UP/C) and eGFR, sparsentan vs irbesartan; format: in vivo, human; settings: for mean reduction in proteinuria (UP/C) from baseline: after 36 weeks of treatment, first 280 patients, sparsentan 200 mg titrated to 400 mg once daily or irbesartan 150 mg titrated to 300 mg once daily, oral, p<0.0001
Description: (§3) The long-term nephroprotective potential of treatment with sparsentan was evaluated in PROTECT, a 114-week, randomized, global, multicenter, double-blind, parallel-group, active-control Phase 3 clinical study in patients with IgAN who have persistent overt proteinuria and remain at high risk of disease progression despite being on a stable dose (or doses) of an angiotensin-converting enzyme inhibitor (ACEI) and/or angiotensin receptor blocker (ARB) that is (are) a maximum tolerated dose that is at least one half of the maximum labeled dose (MLD) (according to approved labeling). The purpose of the study is to evaluate the potential benefit of sparsentan on kidney function by analyzing change in proteinuria (protein in urine) and estimated glomerular filtration rate (eGFR) as compared to current standard treatment.
404 patients aged≥18 years were enrolled in the study globally.
Enrolled patients were at high risk of progressing to renal failure. The trial enrolled patients with eGFR≥30 mL/min/1.73 m^2 and urinary protein to creatinine ratio (UP/C)≥1.0 g/g at screening.
Inclusion criteria included: age 18 years or older at screening; biopsy-proven primary IgAN; proteinuria (UP/C) of ≥1 g/day at screening; eGFR≥30 mL/min/1.73 m^2 at screening; currently on stable dose of ACEI and/or ARB therapy, for at least 12 weeks prior to screening (maximum tolerated dose and at least one-half of the maximum labeled dose); systolic BP≤150 mmHg and diastolic BP≤100 mmHg at screening; willing to undergo change in ACEI and/or ARB and anti-hypertensive medications; and agree to contraception.
(§4) All patients were randomized at a 1:1 ratio to receive sparsentan or the active control, irbesartan (an angiotensin receptor blocker), as a single oral morning dose. Sparsentan was administered at a dose of 200 mg once daily by mouth for 2 weeks and then titrated to 400 mg once daily as tolerated. Irbesartan was administered at a dose of 150 mg once daily by mouth for 2 weeks and then titrated to 300 mg once daily as tolerated.
Change in proteinuria (UP/C) from baseline (Day 1) at Week 36 in sparsentan-treated patients as compared to irbesartan-treated patients was assessed. The Week 36 UP/C was based on a 24-hour urine sample. Secondary outcome measures included eGFR over a 52-week period and a 104-week period following the initial acute effect of randomized therapy. […] Also assessed was eGFR over a 58-week and a 110-week (approximately 2-year) period following the initiation of randomized therapy (the analysis is from Day 1 to 58 weeks postrandomization or from Day 1 to 110 weeks postrandomization, eGFR total slope at 2 years). […]

patients with FSGS [4] = assay: DUPLEX trial: proportion of patients achieving UP/C ≤1.5 g/g and >40% reduction in UP/C (FPRE); format: in vivo, human; settings: p=0.0094; for patients achieving FPRE (UP/C ≤1.5 g/g and >40 percent reduction in UP/C from Baseline): after 36 weeks of treatment, first approximately 190 patients
Description: (§5) The efficacy and safety of sparsentan were evaluated in DUPLEX, a randomized, double-blind, active-controlled, multicenter, global trial in patients with FSGS after exclusion of known secondary causes.
The trial enrolled patients with eGFR≥30 mL/min/1.73 m^2 and urinary protein to creatinine ratio (UP/C)>1.5 g/g. Randomization was stratified based on eGFR (≥30 to <60 mL/min/1.73 m^2 versus eGFR≥60 mL/min/1.73 m^2) and UP/C values (≤3.5 g/g versus >3.5 g/g for patients≥18 years of age, or ≤2 g/g versus >2 g/g for patients<18 years of age).
(§6) All patients were randomized at a 1:1 ratio to receive sparsentan or the active control, irbesartan. Sparsentan was administered at a dose of 400 mg once daily by mouth for 2 weeks and then titrated to 800 mg once daily as tolerated. Irbesartan was administered at a dose of 150 mg once daily by mouth for 2 weeks and then titrated to 300 mg once daily as tolerated. In patients weighing 50 kg or less, dosing was halved in both treatment arms (e.g., sparsentan administered at a dose of 200 mg once daily by mouth for 2 weeks and then titrated to 400 mg once daily as tolerated).
The proportion of patients achieving a UP/C≤1.5 g/g and a >40% reduction from baseline in UP/C was evaluated after patients completed 36 weeks of treatment.
In the DUPLEX Study, a total of 371 patients were randomized 1:1 to receive either sparsentan or irbesartan, the active control. The study protocol provided for an unblinded analysis to evaluate the interim efficacy endpoint—the proportion of patients achieving FPRE, which is a clinically meaningful endpoint defined as urine protein-to-creatinine ratio (UP/C)≤1.5 g/g and a >40 percent reduction in UP/C from Baseline, at Week 36—following the first approximately 190 patients reaching 36 weeks of treatment. After 36 weeks of treatment, 42.0 percent of patients receiving sparsentan achieved FPRE, compared to 26.0 percent of irbesartan-treated patients (p=0.0094).

patients with FSGS [5] = assay: DUPLEX trial: interim safety; format: in vivo, human
Description: as §5, §6

patients with IgAN [6] = assay: PROTECT Phase 3 trial: safety, interim analysis; format: in vivo, human; settings: 400 mg once daily
Description: as §3, §4
The study provided for an analysis of topline results at 36 weeks, following the first 280 patients reaching 36 weeks of treatment.

patients with FSGS [7] = settings: Phase 2 clinical study; cited from earlier work
[8] = system: angiotensin II receptors (Type 1) ("AT1" receptors); settings: selective dual-acting receptor antagonist; cited from earlier work
[9] = system: endothelin (A type) receptors ("ETA" receptors); settings: selective dual-acting receptor antagonist; cited from earlier work

For `CCOc1ccc(Cc2cc([C@@H]3O[C@H](CO)[C@@H](O)[C@H](O)[C@H]3O)ccc2Cl)cc1` [DAPA, dapagliflozin], the “tolerability of single-dose DAPA co-administered with multiple doses of SPAR” value [1] was “appeared to be well tolerated”, the “mean peak and extent of DAPA exposure (Cmax and AUC)” value ([2]; 10 mg DAPA alone vs 10 mg DAPA+800 mg SPAR) was “similar” and the AUC(0-inf) ([2]; single 10 mg DAPA alone, Day 1, read-out: AUC0-inf, geometric LSMs (DAPA alone)) was 534 ng·h/mL. For the same molecule, the AUC(0-t) ([2]; single 10 mg DAPA alone, Day 1, read-out: AUC0-t, geometric LSMs (DAPA alone)) was 509 ng·h/mL, the Cmax ([2]; single 10 mg DAPA alone, Day 1, read-out: Cmax, geometric LSMs (DAPA alone)) was 73.9 ng/mL and the AUC(0-inf) ([2]; single 10 mg DAPA co-administered on Day 11 with 800 mg SPAR once daily for 10 days, read-out: AUC0-inf, geometric LSMs (DAPA + SPAR)) was 565 ng·h/mL. For the same molecule, the AUC(0-t) ([2]; single 10 mg DAPA co-administered on Day 11 with 800 mg SPAR once daily for 10 days, read-out: AUC0-t, geometric LSMs (DAPA + SPAR)) was 526 ng·h/mL, the Cmax ([2]; single 10 mg DAPA co-administered on Day 11 with 800 mg SPAR once daily for 10 days, read-out: Cmax, geometric LSMs (DAPA + SPAR)) was 79.9 ng/mL and the “Cmax, GLSMR (DAPA + SPAR vs DAPA alone)” value ([2]; plasma dapagliflozin, 90% CI 96.0-121.8, intra-subject CV% 22.0) was 108.2%. For the same molecule, the “AUC0-t, GLSMR (DAPA + SPAR vs DAPA alone)” value ([2]; plasma dapagliflozin, 90% CI 99.9-107.0, intra-subject CV% 6.3) was 103.4% and the “AUC0-inf, GLSMR (DAPA + SPAR vs DAPA alone)” value ([2]; plasma dapagliflozin, 90% CI 103.1-108.9, intra-subject CV% 4.4) was 105.9%.
With `CCCCC1=NC2(CCCC2)C(=O)N1Cc1ccc(-c2ccccc2-c2nnn[nH]2)cc1` [irbesartan] the “mean reduction in proteinuria (UP/C) from baseline” value (patients with IgAN [3]) was 15.1% and the “patients achieving FPRE (UP/C ≤1.5 g/g and >40 percent reduction in UP/C from Baseline)” value (patients with FSGS [4]) was 26.0%.
With `CCCCC1=NC2(CCCC2)C(=O)N1Cc1ccc(-c2ccccc2S(=O)(=O)Nc2noc(C)c2C)c(COCC)c1` [sparsentan, 2-[4-[(2-butyl-4-oxo-1,3-diazaspiro[4.4]non-1-en-3-yl)methyl]-2-(ethoxymethyl)phenyl]-N-(4,5-dimethyl-1,2-oxazol-3-yl)benzenesulfonamide] the “tolerability (preliminary review of interim safety results)” value (patients with FSGS [5]; FSGS) was “generally well-tolerated”, the “overall safety profiles between treatment groups” value (patients with FSGS [5]; sparsentan vs active control treatment group) was “generally comparable between treatment groups” and the “reduction in proteinuria compared to the irbesartan-treated group” value (patients with IgAN [3]; 36 weeks, sparsentan-treated vs irbesartan-treated group) was “greater than threefold reduction in proteinuria”. For the same molecule, the “mean reduction in proteinuria (UP/C) from baseline” value (patients with IgAN [3]) was 49.8%, the “preliminary eGFR data at interim analysis” value (patients with IgAN [3]; interim analysis, after two years of treatment) was “indicative of a potential clinically meaningful treatment effect” and the “proportion achieving composite endpoint, sparsentan arm vs irbesartan arm” value (patients with FSGS [4]; Week 36, vs irbesartan) was “significantly higher”. The “patients achieving FPRE (UP/C ≤1.5 g/g and >40 percent reduction in UP/C from Baseline)” value (patients with FSGS [4]) was 42.0%, the “tolerability (preliminary interim results)” value (patients with IgAN [6]) was “generally well-tolerated” and the “reduction of proteinuria in patients with FSGS” value (patients with FSGS [7]) was “shown to reduce proteinuria”. For the same molecule, the “affinity for angiotensin II receptors (Type 1)” value [8] was “selective dual-acting receptor antagonist”, the “effect of multiple dosing of SPAR on single-dose DAPA PK” value ([2]; healthy adults, 800 mg SPAR once daily for 10 days) was “did not affect single-dose DAPA PK” and the “affinity for endothelin (A type) receptors” value [9] was “selective dual-acting receptor antagonist with affinity for endothelin (A type) receptors”.
